Literature values as cited in US10251814B2, “Cefuroxime safety delivery system” (CIS PHARMA AG, priority 2011, dated 2019).
Read-outs that look alike come from different tables or passages of the source.

Assays:
[1] = 1 mg in 0.1 ml of aqueous solution
[2] = system: human corneal endothelial cells; details: 24-hour exposure
[3] = in 48 hours, at room temperature
[4] = system: endophthalmitis; details: 16,603 patients; cefuroxime 1 mg in 0.1 ml normal saline intracameral at end of surgery; levofloxacin drops prior and subsequent to surgery

SMILES: CO/N=C(\C(=O)N[C@@H]1C(=O)N2C(C(=O)O)=C(COC(N)=O)CS[C@H]12)c1ccco1 [cefuroxime]
- safety of intracameral administration [1]: has been established
- concentration resulting in a significant reduction in cell viability [2]: exceeding 2.75 mg/ml
- hydrolysis rate in aqueous solution [3]: about 10%
- reduction of the risk for endophthalmitis [4]: nearly five fold
- mean intracameral concentration (after one hour, intracameral administration of 1 mg in 0.1 ml): 0.756 mg/mL
- mean intracameral concentration (shortly after intracameral administration of 1 mg in 0.1 ml): 2.742 mg/mL
